From patent publication US8895511B2, “Use of sarcoplasmic CA2+-ATPase type 2 protein for diagnosing and treating learning or mental disorders” (priority 2009, dated 2014)

Columns and labels:
[1] = test system: CA3-CA1 synapses in acute hippocampal slices; test: Paired-pulse facilitation (PPF) of fEPSPs, field potential recordings in hippocampal slices; type: cell-based, mouse
[2] = test system: CA3-CA1 synapses in acute hippocampal slices; test: PTP and LTP of fEPSPs induced by 200-Hz tetanization in hippocampal slices; type: cell-based, mouse; details: CPA or thapsigargin (4 μm); for fEPSP5 (PTP, 5 minutes after tetanization) as % of that in vehicle-treated Df(16)1/+ slices / fEPSP360 (LTP, 6 hours post-tetanus) as % of that in vehicle-treated Df(16)1/+ slices: slices from mature Df(16)1/+ mice
[3] = WT mice, 200-Hz induction protocol

Row | Compound | PPF ([1]; Df(16)1/+ mice, 20-ms interval, CPA added to the bath solution) | PPF ([1]; Df(16)1/+ mice, 50-ms interval, CPA added to the bath solution) | PPF ([1]; WT mice, 20-ms interval, in the presence of CPA) | PPF ([1]; WT mice, 50-ms interval, in the presence of CPA) | fEPSP5 (PTP, 5 minutes after tetanization) as % of that in vehicle-treated Df(16)1/+ slices ([2]; 200-Hz tetanization) | fEPSP360 (LTP, 6 hours post-tetanus) as % of that in vehicle-treated Df(16)1/+ slices ([2]; 200-Hz tetanization) | effect on enhancement of PTP and LTP ([2]; Df(16)1/+ mice, 200-Hz tetanization) | WT fEPSP5 in the presence vs absence of inhibitor [2, 3] | WT fEPSP360 in the presence vs absence of inhibitor [2, 3]
1 | CC(=O)C1=C(O)[C@@H]2[C@H]3c4c[nH]c5cccc(c45)C[C@H]3C(C)(C)N2C1=O [CPA, cyclopiazonic acid] | 1.78±0.13 | 1.76±0.09 | 1.64±0.11 | 1.61±0.05 | 45% | 60% |  |  | 
2 | C/C=C(/C)C(=O)O[C@H]1C(C)=C2[C@H]([C@@H]1OC(=O)CCCCCCC)[C@@](C)(OC(C)=O)C[C@H](OC(=O)CCC)[C@@]1(O)[C@H]2OC(=O)[C@@]1(C)O [thapsigargin] |  |  |  |  | 69% | 57% | rescued the enhancement of PTP and LTP | no significant difference | no significant difference
